According to article PMC10127257, “Engineering mutually orthogonal PylRS/tRNA pairs for dual encoding of functional histidine analogues” (Protein Science : A Publication of the Protein Society, 2023):

Target: T1, MaPylRS^IFGFF (Methanomethylophilus alvi, UniProt M9SC49, L125I/Y126F/M129G/V168F/Y206F)
T1 construct: gene MMALV_11280; C-terminal 6-His tag; pET29, E. coli BL21(DE3), Ni-NTA
Test: X-ray crystallography, […] Å
Format: binding
Settings: MgCl2, pH 8; three Mg2+ ions; triethylene glycol in the amino acid pocket

T1 sequence (M9SC49 entry or part of it L125I/Y126F/M129G/V168F/Y206F): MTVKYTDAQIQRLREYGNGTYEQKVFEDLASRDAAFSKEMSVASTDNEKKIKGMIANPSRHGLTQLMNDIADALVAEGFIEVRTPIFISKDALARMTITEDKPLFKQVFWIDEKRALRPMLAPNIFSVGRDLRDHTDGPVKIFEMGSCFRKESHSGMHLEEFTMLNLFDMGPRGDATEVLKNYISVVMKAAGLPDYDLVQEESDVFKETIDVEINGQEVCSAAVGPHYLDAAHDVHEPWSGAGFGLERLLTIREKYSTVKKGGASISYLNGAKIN

Nc1ncnc2c1ncn2[C@@H]1O[C@H](COP(=O)(O)OP(=O)(O)NP(=O)(O)O)[C@@H](O)[C@H]1O [AMP-PNP]
X-ray crystallography, 1.8 Å: bound to the nonreactive ATP analogue adenylyl‐imidodiphosphate (AMP‐PNP, PDB: 8C49
